Values quoted from earlier work in patent US20240207251A1, “PHARMACEUTICAL COMPOSITION CONTAINING ARTESUNATE OR SALT THEREOF AND PYRONARIDINE OR SALT THEREOF, FOR ANTIPYRESIS, ANTI-INFLAMMATORY EFFICACY, ANTI-VIRAL EFFICACY AND TREATMENT OR PREVENTION OF COVID-19, AND METHOD USING SAME” (priority 2021, published 2024).

How the values were obtained:
SARS-COV 2 = conditions: reported by Joon-Yong Bae et al., bioRxiv, Jul. 28, 2020
influenza virus = conditions: reported by Joon-Yong Bae et al., bioRxiv, Jul. 28, 2020

## C[C@H]1[C@H](OC(=O)CCC(=O)O)O[C@@H]2O[C@@]3(C)CC[C@H]4[C@H](C)CC[C@@H]1[C@@]24OO3 [artesunate, dihydroartemisinine-12-alpha-succinate]
SARS-COV 2
  in vitro anti-viral action on COVID-19: in vitro anti-viral action
Influenza virus
  in vitro anti-viral action on influenza: in vitro anti-viral action

## COc1ccc2nc3cc(Cl)ccc3c(Nc3cc(CN4CCCC4)c(O)c(CN4CCCC4)c3)c2n1 [pyronaridine, 4-[(7-chloro-2-methoxybenzo[b]-1,5-naphthyridin-10-yl)amino]-2,6-bis(1-pyrrolidinylmethyl)phenyl]
SARS-COV 2
  in vitro anti-viral action on COVID-19: in vitro anti-viral action
Influenza virus
  in vitro anti-viral action on influenza: in vitro anti-viral action
